Measured values reported in patent US9315451B2, “Tetracycline compounds” (priority 2009, dated 2016).
Where two headings read alike, the source gives them in different places.

What was measured:
[1] = test system: Uropathogenic E. coli EC200; test: Murine kidney infection model, uropathogenic E. coli EC200; assay type: in vivo; details: BALB/c mice; for log reduction at 2 mg/kg: PO 2 mg/kg at 12 and 24 hours post infection; for EC200 UTI IV, log10 reduction in CFUs in the kidney versus untreated controls: @ 5 mpk in cells (column head 3 mg/kg)
Experimental: (§1) Kidney Infection Models for Uropathogenic E. coli EC200 and K. pneumoniae ESBL Isolate KP453
Compounds were tested in a BALB/c murine kidney infection model challenged with tetracycline-resistant E. coli strain uropathogenic […] via intravenous injection. […] For IV administration test compound was dosed at 3 mg/kg. Thirty-six hours following initiation of treatment, mice were euthanized and bacterial reduction in the kidney was quantified by plating kidney homogenates. Results are reported in Table D as log10 reduction in colony forming units (CFUs) in the kidney versus untreated controls (receiving no test compound).

[2] = test system: S. aureus Smith (ATCC 13709); test: Mouse systemic infection (septicemia) model, S. aureus Smith; assay type: in vivo; details: Staphylococcus aureus, CD-1 female mice; for responders at 3 mg/kg: ATCC13709, iv, IV 3 mg/kg one hour post infection, read-out: SA Smith septicemia survival IV (3 mg/kg); for responders at 3 mg/kg / responders at 30 mg/kg: 48 h, survival at 48 hours; for responders at 30 mg/kg: ATCC13709, po, PO 30 mg/kg one hour post infection, read-out: SA Smith septicemia survival PO (30 mg/kg); for ED50: ATCC13709, dose that prevents 50% of the mice from death, 48 hours
Method in brief: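 Female CD-1 mice (18-22 g) infected IP with an inoculum lethal to all within 24–48 h. Compound given 1 h post-infection IV ([…]) or PO ([…]), typically six mice per dose group; survival followed for 48 h and PD50 (mg/kg) derived from 48 h survival.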

[3] = test system: tetracycline-resistant tet(M) S. pneumoniae strain SP160; test: Neutropenic respiratory infection model for S. pneumoniae (murine lung infection); assay type: in vivo; details: neutropenic BALB/c mice, SP160 intranasal, 30 mg/kg orally at 2 and 12 hours post-infection, lung CFU at 24 hours
Experimental: Neutropenic Respiratory Infection Models for S. pneumoniae
Compounds were tested in a neutropenic BALB/c murine model of lung infection challenged with tetracycline-resistant tet(M) S. pneumoniae strain SP160. Mice were made neutropenic by pre-treatment with cyclophosphamide and infected with SP160 via intranasal administration. Mice were dosed orally with 30 mg/kg compound at 2 and 12 hours post-infection. At 24 hours following initiation of treatment, mice were euthanized and bacterial reduction in the lung was quantified by plating lung homogenates. Data was recorded as log10 reduction in lung colony forming units versus an untreated control group.

[4] = test system: K. pneumoniae ESBL Isolate KP453; test: Murine kidney infection model, K. pneumoniae ESBL isolate KP453; assay type: in vivo; details: BALB/c mice; for log reduction at 50 mg/kg: Klebsiella pneumoniae, po, 36 h, PO 50 mg/kg at 9 and 24 hours post infection, read-out: KP453 ESBL UTI PO, log10 reduction in CFUs in the kidney versus untreated controls; for KP453 ESBL UTI IV, log10 reduction in CFUs in the kidney versus untreated controls: IV 20 mg/kg
Experimental: as §1
Compounds were also tested in BALB/c murine kidney infection model challenged with levofloxacin-resistant, ESBL^+ strain KP453 via intravenous injection with 2% carageenen. At 9 and 24 hours post infection mice were treated orally with 50 mg/kg of test compound. For IV administration, test compounds were dosed at 20 mg/kg. At 36 hours following initiation of treatment, mice were euthanized and bacterial reduction in the kidney was quantified by plating homogenates. Results are reported in Table D as log10 reduction in colony forming units (CFUs) in the kidney versus untreated controls (receiving no test compound).

[5] = test system: tetracycline-resistant tet(M) MRSA strain SA191; test: Neutropenic respiratory infection model for MRSA (murine lung infection); assay type: in vivo, Staphylococcus aureus; details: neutropenic BALB/c mice, SA191 intranasal, 50 mg/kg orally at 2 and 12 hours, lung CFU at 24 hours
Experimental: Neutropenic Respiratory Infection Model for MRSA
Compounds were tested in a neutropenic BALB/c murine model of lung infection challenged with a tetracycline-resistant tet(M) MRSA strain SA191 infected via intranasal administration. At 2 and 12 hours mice were dosed orally with 50 mg/kg compound. At 24 hours following initiation of treatment, mice were euthanized and bacterial reduction in the lung was quantified by plating lung homogenates. Data was recorded as log10 reduction in lung colony forming units versus an untreated control group.

[6] = Pharmacokinetic studies in rats; assay type: in vivo; details: rat, plasma, male Sprague Dawley rats, fasted; for clearance: read-out: Cl, IV Rat PK; for bioavailability: oral 10 mg/kg vs IV 1 mg/kg, read-out: % F (oral bioavailability), Oral Rat PK; for Cmax: read-out: Cmax, IV Rat PK
Experimental: Pharmacokinetic Studies in Rats Test compounds were evaluated in fasted (no food for 18 hours prior to dosing) male Sprague Dawley rats (3 animals per group) by administration of 1 mg/kg intravenously into the jugular vein and […] by oral gavage. Ten plasma samples were drawn for each dosing route up to 24 hours into heparin-coated vacutainer tubes. The plasma concentrations of the test compounds were quantified by LC/MS/MS using an internal standards. WinNONLIN was used to determine PK parameters ±standard deviation (AUC, Cmax, CL, Vss and % oral bioavailabilty (% F) and are set forth in Table F.

Monkey PK = assay type: in vivo; details: cynomolgus monkey, plasma, cynomolgus monkeys
Experimental: Compounds S24-9-23 and S16-10-161 were evaluated in 3 non-naïve cynomolgus monkeys. Each animal received a single IV dose of 1 mg/kg and after a 7-day washout, received a single PO dose of 10 mg/kg. Nine to ten plasma samples were drawn for each dosing route up to 24 hours into heparin-coated vacutainer tubes. Dose formulations were verified with a 5-point calibration curve. The plasma concentration of the compound was quantified by LC/MS/MS using an internal standard.

S. aureus ATCC 13709 = test: Neutropenic thigh model; assay type: in vivo; details: neutropenic female CD-1 mice, IV, doses ranging 0.3 to 30 or 0.3 to 20 mg/kg, 24 hours post treatment
Experimental: Neutropenic Thigh Model Female CD-1 mice were pre-treated with cyclophosphamide to render the mice neutropenic. Mice were infected with S. aureus ATCC 13709 via injection of 0.1 ml into the right thigh muscle of each mouse. One and a half hours post infection mice were treated IV with test compounds in doses ranging from 0.3 to 30 mg/kg or 0.3 to 20 mg/kg. Four mice were treated with each drug concentration. Twenty-four hours post treatment, mice were euthanized by CO2 inhalation. The right thighs of the mice were aseptically removed, weighed, homogenized, serially diluted, and plated on TSA medium. The plates were incubated overnight at 37° C. in 5% CO2. Colony forming units per gram of thigh was calculated by enumerating the plated colonies then adjusting for serial dilutions and the weight of the thigh.

[7] = PO, read-out: SA Smith septicemia PD50 PO
[8] = Escherichia coli, po, 36 h, read-out: EC200 UTI PO, log10 reduction in CFUs in the kidney versus untreated controls
[9] = IV 1 mg/kg, read-out: AUC, IV Rat PK
[10] = oral gavage 10 mg/kg, read-out: AUC, Oral Rat PK
[11] = IV, read-out: SA Smith septicemia PD50 IV

Structure (SMILES) | responders at 3 mg/kg [2] [%] | responders at 30 mg/kg [2] [%] | ED50 [2, 7] [mg/kg] | Bacterial Reduction in the Lung (Log10 change from 24 hour control) [3] [Log10] | log reduction at 50 mg/kg [4] | log reduction at 2 mg/kg [1, 8] | Bacterial Reduction in the Lung (Log10 change from 24 hour control) [5] [Log10] | clearance ([6]; IV 1 mg/kg) [mL/min/kg] | bioavailability [6] [%] | AUC [6, 9] [ng·h/mL] | Cmax ([6]; IV 1 mg/kg) [ng/mL] | AUC [6, 10] [ng·h/mL] | also measured
CN(C)[C@@H]1C(O)=C(C(N)=O)C(=O)[C@@]2(O)C(O)=C3C(=O)c4c(O)cc(CN5CCCCCC5)c(Cl)c4C[C@H]3C[C@@H]12 [Compound S15-13-188] | 100 | 100 | 8.3 | −0.22 | 1.55 | – | – | – | – | – | – | – | log reduction at 3 mg/kg ([1]; Escherichia coli, po, 36 h, PO @ 3 mpk, read-out: EC200 UTI PO, log10 reduction in CFUs in the kidney versus untreated controls): 3.48
C[C@H]1CC[C@H](C)N1Cc1cc(O)c2c(c1Cl)C[C@H]1C[C@H]3[C@H](N(C)C)C(O)=C(C(N)=O)C(=O)[C@@]3(O)C(O)=C1C2=O [Compound S15-13-223] | 100 | 100 | – | −0.12 | 1.32 | 2.27 | – | – | – | – | – | – | –
C[C@@H](NCc1cc(O)c2c(c1N(C)C)C[C@H]1C[C@H]3[C@H](N(C)C)C(O)=C(C(N)=O)C(=O)[C@@]3(O)C(O)=C1C2=O)C(C)(C)C [Compound S16-10-79] | 100 | 100 | – | −4.31 | – | – | −1.27 | – | – | – | – | – | –
COc1c(CN(C)C(C)(C)C2CC2)cc(O)c2c1C[C@H]1C[C@H]3[C@H](N(C)C)C(O)=C(C(N)=O)C(=O)[C@@]3(O)C(O)=C1C2=O [S24-9-21] | 100 | 100 | – | −0.89 | 2.16 | 2.3 | −1.98 | – | – | – | – | – | EC200 UTI IV, log10 reduction in CFUs in the kidney versus untreated controls [1]: @ 5 mpk −4.09 log10; KP453 ESBL UTI IV, log10 reduction in CFUs in the kidney versus untreated controls [4]: −2.87 log10
CN(C)[C@@H]1C(O)=C(C(N)=O)C(=O)[C@@]2(O)C(O)=C3C(=O)c4c(O)c(N)c(CN5CCCCCC5)c(Cl)c4C[C@H]3C[C@@H]12 [Compound S29-2-4] | 100 | 83 | – | – | – | – | −1.29 | – | – | – | – | – | –
COc1c(CN2CCCCC2)cc(O)c2c1C[C@H]1C[C@H]3[C@H](N(C)C)C(O)=C(C(N)=O)C(=O)[C@@]3(O)C(O)=C1C2=O [Compound S24-9-23] | 100 | 100 | – | – | 2.93 | 2.99 | – | 9.26 | 12.2 | 1830 | 795 | 2230 | EC200 UTI IV, log10 reduction in CFUs in the kidney versus untreated controls [1]: @ 5 mpk −4.34 log10; bioavailability (Monkey PK; PO 10 mg/kg vs IV 1 mg/kg, read-out: % F (oral bioavailability), monkey): 36.8%; clearance (Monkey PK; single IV dose of 1 mg/kg, read-out: Cl, IV, monkey (converted)): 2.4 mL/min/kg; Vd (Monkey PK; single IV dose of 1 mg/kg, read-out: Vdss, IV, monkey): 3.4 L/kg; AUC (Monkey PK; single IV dose of 1 mg/kg, read-out: AUC, IV, monkey): 7070 ng·h/mL; Cmax (Monkey PK; single IV dose of 1 mg/kg, read-out: Cmax, IV, monkey): 1370 ng/mL; AUC (Monkey PK; single PO dose of 10 mg/kg, read-out: AUC, oral, monkey): 22800 ng·h/mL; Cmax (Monkey PK; single PO dose of 10 mg/kg, read-out: Cmax, oral, monkey): 1350 ng/mL; KP453 ESBL UTI IV, log10 reduction in CFUs in the kidney versus untreated controls [4]: −2.95 log10
CC(C)CNCc1cc(O)c2c(c1F)C[C@H]1C[C@H]3[C@H](N(C)C)C(O)=C(C(N)=O)C(=O)[C@@]3(O)C(O)=C1C2=O [Compound S2-4-14] | 100 | 100 | 12.2 | – | – | – | – | 3.88 | 13.7 | 4430 | 667 | 6160 | ED50 [2, 11]: 0.84 mg/kg; log10 REDUCTION in colony forming units versus untreated control group (thigh) (S. aureus ATCC 13709): 3.68 log10
CCC(C)(C)N(C)Cc1cc(O)c2c(c1F)C[C@H]1C[C@H]3[C@H](N(C)C)C(O)=C(C(N)=O)C(=O)[C@@]3(O)C(O)=C1C2=O [Compound S2-4-28] | 100 | 100 | 3 | −0.06 | – | – | – | 17.6 | 44.7 | 970 | 170 | 4380 | ED50 [2, 11]: 0.62 mg/kg
